Reference: patent US10087199B2, “Super-resolution imaging compositions and methods using same” (Yale University, priority 2014, dated 2018)
Each block holds one molecule with its values, some of them ahead of it.

Key:
Type in all cases: cell-based
[1] = system: HeLa cells that stably expressed GalNAcT2-GFP; assay: FRAP analysis of GalNAcT2-GFP mobility within the Golgi; conditions: recovery over 490 seconds, Cer-TCO alone or 5 μM Cer-TCO and 1 μM SiR-Tz, versus untreated
Source text: To further test whether the combination of Cer-TCO and SiRTz affected traffic within the Golgi, HeLa cells that stably expressed the GFP-tagged transmembrane Golgi enzyme GalNAcT2 (Storrie, et al., 1998, J. Cell Biol. 143:1505-1521) were used and its intra-organelle mobility was monitored using fluorescence recovery after photobleaching (FRAP) experiments (FIG. 4A). A small rectangular area of the Golgi (about 2.2 microns wide) was photobleached at 488 nm and the fluorescence recovery was monitored over 490 seconds (FIG. 4B). Both the t1/2 of recovery and mobile fraction were unchanged when the cells were treated with Cer-TCO alone or the combination of 5 μM Cer-TCO and 1 μM SiR-Tz (FIG. 4C). Thus, treatment of cells with Cer-TCO alone or Cer-TCO and SiR-Tz led to no detectable change in the diffusion of GalNAcT2-GFP within the Golgi apparatus.
The stable cell line was cultured on a 35 mm glass bottom dish. In the negative control (no treatment), the medium was replaced by DMEM ph(−). […] The photobleaching of the FRAP experiment was performed with a fluorescence recovery after photobleaching unit of the microscope. […] Quantification was performed with ImageJ. The fluorescence intensity in the unbleached region of the cytosol was subtracted from that in the bleached region of Golgi. […]

[2] = system: HeLa cells that stably expressed GalNAcT2-GFP (Golgi); assay: Two-step Golgi labeling and colocalization with GalNAcT2-GFP by confocal microscopy
Protocol: To evaluate whether the Golgi could be selectively imaged using Cer-SiR, HeLa cells that stably expressed a protein fusion composed of GFP and N-acetyl-galactosaminyltransferase 2 (GalNAcT2), a transmembrane protein that localizes to the Golgi with high specificity (Storrie, et al., 1998, J. Cell Biol. 143:1505-1521), were used. These cells were treated with 2 μM Cer-TCO (5 min), maintained at 19.5° C. for 60 min to localize the lipid to the Golgi, treated subsequently with 2 μM SiR-Tz (30 min), and visualized using confocal microscopy (FIG. 2A).
The GalNAcT2-GFP and Cer-SiR signals colocalized with a Pearson's coefficient of 0.50±0.02; the corresponding value for the signals from GalNAcT2-GFP and SiR-Tz was 0.08±0.01 (p<0.0001) (FIG. 10), supporting that Cer-TCO effectively localized to the Golgi and reacted efficiently with SiR-Tz.
Stably or transiently transfected HeLa cells were cultured on 35 mm glass bottom dishes (Mattek). To label with Cer-TCO/SiR-Tz, the cells were incubated in PBS containing 1% casein, 0.2% Pluronic F-127 and 2 or 5 μM TCO-Cer for 5 min at 37° C. After washing three times with DMEM ph(−), the cells were incubated for 1 h at 19.5° C. in DMEM ph(−). During this incubation the dish was sealed with parafilm to protect the cells from the used water bath. Subsequently, the cells were washed three times and PBS containing 1% casein and 2 or 1 μM SiR-Tz, respectively, was added to the dish. The dish was sealed with parafilm again and incubated for 30 min at 19.5° C. After washing three times with DMEM ph(−), the cells were observed under a confocal microscope. Fixed samples were prepared similarly with an additional treatment with 4% PFA for 10 min at room temperature after first temperature block. […]
The Pearson correlation between the SiR and the GFP signal within cells was determined using the correlation measurement tool in Volocity. […] For cells stably expressing GalNAcT2-GFP and treated with SiR-Tz and Cer-TCO 13 samples (cells) were analyzed and for cells only treated with SiR-Tz 8 samples were analyzed. […]

[3] = system: HeLa cells; assay: Cell viability / cell- and photo-toxicity under prolonged imaging; conditions: 5 μM
Protocol: In the experiments described above, the cells were exposed to Cer-TCO/SiR-Tz for minutes, a relatively short time period. To evaluate whether this Golgi labeling strategy would result in cell- or photo-toxicity over prolonged periods (such as hours), HeLa cells were treated with varying concentrations of either Cer-TCO/SiR-Tz or BODIPY® FL C5-ceramide (BODIPY-Cer) (Marks, et al., 2008, Cell Biol. 130:819-832; Pagano, et al., 1991, J. Cell Biol. 113:1267-1279), a commercially available fluorescent dye that labels the Golgi. […]
Hela cells stably expressing GalNAcT2-GFP were cultured on 35 mm glass bottom dishes subsequently labeled with various concentrations of TCO-Cer (0, 1, 2, and 5 μM) and SiR-Tz (0, 1, and 2 μM) following the protocol described elsewhere herein. […] After equilibration for 30 min, phase contrast images were taken at an interval of 20 min and fluorescence images at an interval of 10 min over 400-750 min. […] The number of physically intact cells was counted at each time point. For each condition at least 110 cells were counted/observed in the initial images (n0 (0 μM TCO-Cer, 0 μM SiR-Tz)=123 cells, n0 (2 μM TCO-Cer, 2 μM SiR-Tz)=113 cells, n0 (1 μM TCO-Cer, 1 μM SiR-Tz)=130 cells, n0 (5 μM TCO-Cer, 1 μM SiR-Tz)=120 cells, n0 (5 μM BODIPY-Cer)=123 cells).

[4] = system: HeLa cells (Golgi label); assay: Photostability in sequential 3D spinning disk confocal imaging; conditions: live cells; spinning disk confocal
Protocol: The relative photostability of Cer-TCO/SiR-Tz to both BODIPY-Cer and the SiR labeled SNAP-tag Golgi protein Rab6 was compared. The latter is the product of reaction between Rab6-SNAP and a benzyl guanine derivative of SiR (SiR-BG) (Lukinavicius, et al., 2013, Nature Chem. 5:132-139) and thus contains the same near-IR dye as SiR-Tz (FIGS. 5A-5B). HeLa cells were treated with Cer-TCO/SiR-Tz or BODIPY-Cer, while Rab6-SNAP-expressing cells were treated with SiR-BG. The cells were then examined in sequential 3D images using spinning disk confocal microscopy; 3D visualization limited fluorescence fluctuations due to axial sample drift. In each case, 3D “stacks” of 22 optical sections were acquired in series up to 500 times in live or fixed cells (FIGS. 5A-5B). In live cells, even under optimal imaging conditions the BODIPY-Cer fluorescent signal decreased by 50% after fewer than 15 stacks. In striking contrast, the fluorescent signal of cells treated with 2 μM Cer-TCO followed by 2 μM SiR-Tz decreased by only 10% after more than 120 3D stacks had been acquired. Consistent with a lower density of Rab6-SNAP protein in the Golgi, the signal from Rab6-SNAP-SiR decayed at an intermediate rate, decreasing by 50% after about 50 3D stacks. […] After 500 3D stacks the fluorescent signal of Cer-SiR decreased 16% whereas that of Rab6-SNAP-SiR decreased by 84%. […]

Structure (SMILES): CCCCCCCCCCCCC/C=C/[C@@H](O)[C@H](CO)NC(=O)CCCCCNC(=O)OC1CC/C=C/CCC1 (stereo partly drawn) [Cer-TCO, (E)-cyclooct-4-en-1-yl (6-(((2S,3R,E)-1,3-dihydroxyoctadec-4-en-2-yl)amino)-6-oxohexyl)carbamate]
- Mobile fraction (FRAP) [1]: unchanged

Structure (SMILES): CN(C)c1ccc2c(c1)[Si](C)(C)C1=CC(=[N+](C)C)C=CC1=C2c1cc(C(=O)NCc2ccc(-c3nncnn3)cc2)ccc1C(=O)[O-] [SiR-Tz, 4-((4-(1,2,4,5-tetrazin-3-yl)benzyl)carbamoyl)-2-(7-(dimethylamino)-3-(dimethyliminio)-5,5-dimethyl-3,5-dihydrodibenzo[b,e]silin-10-yl)benzoate]
- Pearson's coefficient of colocalization with GalNAcT2-GFP signal ([2]; 2 μM Cer-TCO then 2 μM SiR-Tz, or SiR-Tz only, Golgi area, confocal): 0.08±0.01
- Labeling of cells / Golgi region ([2]; live HeLa GalNAcT2-GFP cells, Cer-TCO followed by SiR-Tz, or SiR-Tz alone): did not label the cells

- Number of 3D stacks after which fluorescent signal decreased by 50% [4]: < 15 stacks
Structure (SMILES): CCCCCCCCCCCCC/C=C/[C@@H](O)[C@H](CO)NC(=O)CCCCC1=[N+]2C(=Cc3c(C)cc(C)n3[B-]2(F)F)C=C1 [BODIPY-Cer, BODIPY® FL C5-ceramide, reference compound]
- Time after which cell rounding and de-attachment was induced [3]: about 6 hours
